Assay [1] concerns EC9706. As to the kind of experiment: Effect on Prxs-2 protein expression in human EC9706 cells at 2 to 8 uM after 48 hrs by Western blot analysis. In kind it is functional, cell-based.
Assay [2] has as its system EC9706. Nature of the assay: Induction of apoptosis in human EC9706 cells assessed as increase in p53 protein expression after 48 hrs by Western blot analysis. It is filed as functional, cell-based. On the technique in general: A western blot detects proteins with antibodies after separation by electrophoresis.
Assay [3] relates to EC9706. Nature of the assay: Cell cycle arrest in human EC9706 cells assessed as increase in G0/G1 phase population at 4 uM after 24 hrs by propidium iodide staining based flow cytometry relative to control. In kind it is functional.
For assay [4], the system named is EC9706. Nature of the assay: Upregulation of p27 protein expression in human EC9706 cells at 2 uM after 24 to 48 hrs by Western blot analysis relative to control. It is filed as functional.
In assay [5] the test system is ECa-109 cell line. Nature of the assay: Induction of apoptosis in human EC109 cells assessed as late apoptotic cells at 4 uM after 48 hrs by Annexin V-FITC/propidium iodide staining based flow cytometry (reference value: 0.2 to 1.74%). In kind it is functional. (In general: A flow cytometer gives signals particle by particle.)
The test system of assay [6] is EC9706. Nature of the assay: Induction of apoptosis in human EC9706 cells assessed as late apoptotic cells at 8 uM after 48 hrs in presence of caspase inhibitor Z-VAD-FMK by Annexin V-FITC/propidium iodide staining based flow cytometry (reference value: 1.27%). In kind it is functional.
In a further assay the test system is GES1. As to the kind of experiment: Antiproliferative activity against human GES-1 cells after 24 hrs by MTT assay. In kind it is cell-based. To be noted: GES1, 24 h. For orientation: Tetrazolium dyes change colour on reduction, which living cells bring about.
Assay [7] relates to EC9706. As to the kind of experiment: Induction of apoptosis in human EC9706 cells assessed as increase in tBid protein expression at 2 to 8 uM after 48 hrs by Western blot analysis. It is filed as functional, cell-based.
Assay [8] deals with ECa-109 cell line. As to the kind of experiment: Induction of apoptosis in human EC109 cells assessed as live cells at 2 uM after 48 hrs by Annexin V-FITC/propidium iodide staining based flow cytometry (reference value: 95.2 to 99%). In kind it is functional.
The subject of assay [9] is ECa-109 cell line. Nature of the assay: Induction of apoptosis in human EC109 cells at 2 to 4 uM after 48 hrs in presence of anti-oxidant NAC by Annexin V-FITC/propidium iodide staining based flow cytometry. In kind it is functional, cell-based.
Assay [10] deals with ECa-109 cell line. Nature of the assay: Induction of apoptosis in human EC109 cells assessed as decrease in Bid protein expression at 2 to 8 uM after 48 hrs by Western blot analysis. It is filed as functional, cell-based.

pIC50: −log10 of the molar value. Active and inactive are the calls of the source. The rule behind the calls is not given here.

The text below walks through data of ChEMBL document CHEMBL4196033, “Potent hydrazone derivatives targeting esophageal cancer cells” (Eur J Med Chem, 2018).

What is called pIC50 is −log10 of the IC50, conventionally taken in molar units. A higher pIC50 goes with a low IC50.

As for `COc1ccc(/C=N/NC(=O)c2cccc(S(=O)(=O)N3CCOCC3)c2)c(O)c1`, the outcome with EC9706 [1], with EC9706 [7] and with ECa-109 cell line [10] was Active. Also, the Activity entry with EC9706 [2] was “Dose-dependent effect”; with ECa-109 cell line [5], 17.4 - 31.1%; in the assay on EC9706 [6] it was 25%; in the assay with ECa-109 cell line [8], 79.1%. The “fold change (FC)” value came out at 1.22 with EC9706 [3] and 1.3 in the assay with EC9706 [4]. Also, the pIC50 in the assay with GES1 is under 4.10. Moreover, the outcome with ECa-109 cell line [9] was inactive.
